In PubChem BioAssay (NCI):
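48-hour exposure; five concentrations; linearly interpolated endpoints. The concentration for 50% growth inhibition is given as GI50. TGI marks complete inhibition of growth.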

Key:
Test in all cases: growth of human tumour cells (NCI), 48 h
NCI-H522 lung = tested on: NCI-H522 lung
OVCAR-5 ovarian = tested on: OVCAR-5 ovarian
NCI-H23 lung = tested on: NCI-H23 lung
RXF 393 renal = tested on: RXF 393 renal
KM12 colon = tested on: KM12 colon
SK-MEL-2 melanoma = tested on: SK-MEL-2 melanoma
DU-145 prostate = tested on: DU-145 prostate
M14 melanoma = tested on: M14 melanoma
SK-MEL-28 melanoma = tested on: SK-MEL-28 melanoma
HOP-62 NSCLC = tested on: HOP-62 NSCLC

SMILES	TGI (NCI-H522 lung) [µM]	TGI (OVCAR-5 ovarian) [µM]	TGI (NCI-H23 lung) [µM]	TGI (RXF 393 renal) [µM]	TGI (KM12 colon) [µM]	TGI (SK-MEL-2 melanoma) [µM]	TGI (DU-145 prostate) [µM]	TGI (M14 melanoma) [µM]	TGI (SK-MEL-28 melanoma) [µM]	TGI (HOP-62 NSCLC) [µM]	GI50 (NCI-H522 lung) [µM]	GI50 (OVCAR-5 ovarian) [µM]	GI50 (NCI-H23 lung) [µM]	GI50 (RXF 393 renal) [µM]	GI50 (KM12 colon) [µM]	GI50 (SK-MEL-2 melanoma) [µM]	GI50 (DU-145 prostate) [µM]	GI50 (SK-MEL-28 melanoma) [µM]	GI50 (HOP-62 NSCLC) [µM]	GI50 (M14 melanoma) [µM]
COc1cc(OC)c2nc(C)c3c(c2c1)SCC3	77.8	80.2	58.6	54.1	> 100	67.5	> 100	> 100	> 100	34.6	–	–	–	–	–	–	–	–	–	–
COc1cc(C(=O)c2c(-c3ccccc3)oc3c(OC)cccc23)cc(OC)c1OC	> 34.4	> 100	16.8	4.69	> 100	> 84.5	> 65.6	–	> 100	47	0.0348	0.158	0.106	0.0414	0.0567	2.4	0.125	13.8	0.071	–
COc1cccc(-c2c[nH]c3c(N/N=C/c4ccncc4)ncnc23)c1	7.78	17.2	11.8	2.16	4.9	6.15	> 15.2	9.54	> 16	> 15.3	2.25	4.93	2.98	0.501	1.41	1.7	2.23	3.42	3.74	3.19
Cn1ncnc1[C@H]1c2n[nH]c(=O)c3cc(F)cc(c23)N[C@@H]1c1ccc(F)cc1	> 100	> 100	> 100	> 100	> 100	> 100	> 100	> 100	> 100	> 100	> 100	> 100	> 34.5	25.9	> 100	> 100	3.59	> 100	5.81	4.19
O=C1C(Nc2ccc(Cl)cc2)=C(I)C(=O)c2ncccc21	–	3	3.17	3.12	11	3.03	3.37	2.26	3.02	4.74	–	1.58	1.25	1.69	1.68	1.55	1.37	1.64	1.79	0.828
